Test systems include MOLT-4 leukemia; OVCAR-3 ovarian; HCT-15 colon; SK-OV-3 ovarian; A498 renal; SF-268 CNS; U251 CNS; CCRF-CEM leukemia; SR leukemia; MCF7 breast.
What all share (experiment): NCI anticancer screen, dose series, 48 h

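Cells were grown in 96-well plates and exposed to each compound for 48 hours at five concentrations; endpoints were interpolated linearly between bracketing concentrations, or set to the highest concentration if not reached. GI50 is the concentration that inhibits growth by half. Definition used: TGI = concentration required for complete inhibition of growth.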 Where a SMILES comes first, the peptide text is derived from it. The star is where a group is joined. Boc = CC(C)(C)OC(=O)* Some results are limits rather than exact numbers.

`Cc1cc2c(=O)c3ccc(Cl)cc3[nH]c2c(C(N)=O)c1C`: the TGI in the test on MOLT-4 leukemia, in the test on OVCAR-3 ovarian, with HCT-15 colon, in the test with SK-OV-3 ovarian, in the test on A498 renal and in the test with SF-268 CNS was over 100 µM in each case. The TGI in the test with U251 CNS and with CCRF-CEM leukemia was over 100 µM each time.

For the compound `CCC1=C(C[C@H]2NCCc3cc(OC)c(OC)cc32)C[C@H]2c3cc(OC)c(OC)cc3CCN2C1`, the TGI was over 100 µM with MOLT-4 leukemia; 0.158 µM in the test with OVCAR-3 ovarian; 1.02 µM with HCT-15 colon; 55.1 µM with SR leukemia; 0.73 µM in the test with SK-OV-3 ovarian; 0.0497 µM in the test on A498 renal. Moreover, the TGI stood at 0.407 µM with SF-268 CNS and 0.188 µM in the test on U251 CNS.

As for `CCOc1ccc2nc3nc(=O)[nH]c(C)c3c(NC(C)(CO)CO)c2c1`, the TGI with MOLT-4 leukemia, with OVCAR-3 ovarian, with HCT-15 colon, with SK-OV-3 ovarian, in the test with A498 renal and in the test on MCF7 breast was over 100 µM in each case. Further, the TGI in the test on SF-268 CNS, in the test with U251 CNS and with CCRF-CEM leukemia was over 100 µM in each case.

`Oc1ccc(Cl)cc1-c1cc(-c2ccccc2)nc(=S)[nH]1`: the TGI in the test with MOLT-4 leukemia, in the test on OVCAR-3 ovarian, in the test on HCT-15 colon, with SK-OV-3 ovarian, with A498 renal and in the test on MCF7 breast was over 100 µM each time. Moreover, the figures for the TGI in the test on SF-268 CNS, with U251 CNS and with CCRF-CEM leukemia were 77.7 µM, 39.8 µM and over 100 µM, respectively.

For `O=C(O)Cn1c2c(c3c1-c1ccccc1C3=O)C(=O)CCC2`, the GI50 in the test with MOLT-4 leukemia, in the test on OVCAR-3 ovarian, in the test with HCT-15 colon, in the test on SK-OV-3 ovarian, with A498 renal and in the test with MCF7 breast was over 100 µM each time. In addition, the GI50 is over 100 µM in the test with SF-268 CNS, over 100 µM in the test on U251 CNS and 32 µM with CCRF-CEM leukemia. Also, the TGI in the test on MOLT-4 leukemia, in the test with OVCAR-3 ovarian, in the test with HCT-15 colon, in the test with SK-OV-3 ovarian, in the test with A498 renal and in the test with MCF7 breast was over 100 µM in each case. Also, the TGI with SF-268 CNS, with U251 CNS and in the test on CCRF-CEM leukemia was over 100 µM throughout.

For the compound `O=C(O)CSC1=NNC2(C(=O)N1)c1ccccc1-c1ccccc12`, the TGI in the test on MOLT-4 leukemia, with HCT-15 colon, in the test with SR leukemia, in the test on SK-OV-3 ovarian, with MCF7 breast and with SF-268 CNS was over 10 µM in each case. Further, the TGI in the test on CCRF-CEM leukemia was over 10 µM.

On to `COc1ccc(OC)c2c(C)ccnc12`, for which the TGI with OVCAR-3 ovarian was 26 µM; in the test with HCT-15 colon, over 100 µM; in the test on SK-OV-3 ovarian, over 100 µM; in the test on A498 renal it was over 100 µM; in the test on MCF7 breast it was over 100 µM; in the test with SF-268 CNS, over 97.2 µM. The TGI with U251 CNS was over 100 µM; in the test on CCRF-CEM leukemia, over 29.8 µM.

For `C=C(Br)C[N+]12CN3CN(CN(C3)C1)C2`, the TGI in the test with MOLT-4 leukemia, in the test with OVCAR-3 ovarian, in the test with HCT-15 colon, in the test on SR leukemia, in the test with SK-OV-3 ovarian and in the test with A498 renal was over 100 µM in each case. Besides, the TGI in the test with SF-268 CNS, with U251 CNS and in the test on CCRF-CEM leukemia was over 100 µM each time.

On to `Cn1c2ccccc2n2c3ncccc3c(=O)cc12`, for which the TGI in the test with MOLT-4 leukemia, with OVCAR-3 ovarian, with HCT-15 colon, in the test with SK-OV-3 ovarian, in the test on A498 renal and with SF-268 CNS was over 100 µM throughout. Besides, the TGI in the test with U251 CNS is over 100 µM.

For `Oc1c(Cl)cc2cc1-c1cc(cc(Cl)c1O)CCc1c(cc(Cl)c(O)c1Cl)-c1cc(Cl)c(c(Cl)c1O)/C=C\2`, the TGI in the test on MOLT-4 leukemia is over 50 µM; with OVCAR-3 ovarian, 14.4 µM; in the test with HCT-15 colon, 17.4 µM; in the test on SR leukemia, over 50 µM; in the test with SK-OV-3 ovarian it was 18 µM; in the test with A498 renal, 30.8 µM. For the same compound, the results for the TGI in the test with SF-268 CNS, in the test on U251 CNS and in the test with CCRF-CEM leukemia were 23.6 µM, 45.6 µM and over 50 µM, respectively.

In the case of `O=c1[nH]nc(-c2ccccc2)c2[nH]c3c(c12)Cc1ccccc1-3`, the TGI with MOLT-4 leukemia was over 25.2 µM; with OVCAR-3 ovarian it was over 49 µM; in the test with HCT-15 colon, over 100 µM; with SK-OV-3 ovarian it was over 100 µM; in the test with A498 renal it was over 100 µM; with MCF7 breast, over 100 µM. In addition, the TGI with SF-268 CNS, in the test on U251 CNS and in the test with CCRF-CEM leukemia was over 100 µM in each case.

For the compound `O=C1c2ccncc2C(=O)c2c(O)ccc(O)c21`, the TGI with MOLT-4 leukemia turned out to be 54.5 µM; in the test on OVCAR-3 ovarian it was 5.81 µM; in the test with HCT-15 colon it was 24.3 µM; with SR leukemia, 52.3 µM; with A498 renal, 33.1 µM; in the test with SF-268 CNS, 24.2 µM. The TGI in the test with U251 CNS was determined as 30.3 µM; in the test on CCRF-CEM leukemia it was 32.7 µM.

Take `CC(C)(C)OC(=O)C(C#N)C(=O)c1ccc(C(=O)O)[nH]1` (configuration not stated): the TGI in the test on MOLT-4 leukemia is over 100 µM; in the test on OVCAR-3 ovarian, over 100 µM; in the test on HCT-15 colon, over 100 µM; with SK-OV-3 ovarian, over 100 µM; in the test with A498 renal, 77.2 µM; in the test with SF-268 CNS, over 100 µM. In addition, the TGI in the test on U251 CNS and in the test on CCRF-CEM leukemia was over 100 µM each time.

Turning to `Cc1cc(C)c2c(c1)C/C(=C\c1cccc(C)c1C(=O)O)C2=O`, the TGI in the test with MOLT-4 leukemia, with OVCAR-3 ovarian, in the test with HCT-15 colon, in the test with SR leukemia, in the test with A498 renal and in the test on SF-268 CNS was over 100 µM each time. This compound also showed a TGI in the test on CCRF-CEM leukemia of over 100 µM.

On to `COC(=O)C(Cc1c[nH]c2ccccc12)NC(=O)C(Cc1c[nH]c2ccccc12)NC(=O)C(Cc1c[nH]c2ccccc12)NC(=O)C(Cc1c[nH]c2ccccc12)NC(=O)C(Cc1c[nH]c2ccccc12)NC(=O)C(Cc1c[nH]c2ccccc12)NC(=O)C(Cc1c[nH]c2ccccc12)NC(=O)OC(C)(C)C` (configuration not stated) (Boc-WWWWWWW-OMe; configuration not given here), for which the TGI in the test with MOLT-4 leukemia, in the test on OVCAR-3 ovarian, in the test on HCT-15 colon, in the test with SR leukemia, with MCF7 breast and with SF-268 CNS was over 100 µM each time. Also, the TGI in the test with U251 CNS and in the test with CCRF-CEM leukemia was over 100 µM each time.

These data come from PubChem BioAssay (NCI).
